From ChEMBL document CHEMBL5331138, “Potent, Selective, and Membrane Permeable 2-Amino-4-Substituted Pyridine-Based Neuronal Nitric Oxide Synthase Inhibitors” (J Med Chem, 2023) come the findings set out here.

Each structure is given as a SMILES string. Some results are limits rather than exact numbers.

In one series the target is T1, Nitric oxide synthase 3 (Homo sapiens, UniProt P29474).
T1 sequence (P29474 whole entry): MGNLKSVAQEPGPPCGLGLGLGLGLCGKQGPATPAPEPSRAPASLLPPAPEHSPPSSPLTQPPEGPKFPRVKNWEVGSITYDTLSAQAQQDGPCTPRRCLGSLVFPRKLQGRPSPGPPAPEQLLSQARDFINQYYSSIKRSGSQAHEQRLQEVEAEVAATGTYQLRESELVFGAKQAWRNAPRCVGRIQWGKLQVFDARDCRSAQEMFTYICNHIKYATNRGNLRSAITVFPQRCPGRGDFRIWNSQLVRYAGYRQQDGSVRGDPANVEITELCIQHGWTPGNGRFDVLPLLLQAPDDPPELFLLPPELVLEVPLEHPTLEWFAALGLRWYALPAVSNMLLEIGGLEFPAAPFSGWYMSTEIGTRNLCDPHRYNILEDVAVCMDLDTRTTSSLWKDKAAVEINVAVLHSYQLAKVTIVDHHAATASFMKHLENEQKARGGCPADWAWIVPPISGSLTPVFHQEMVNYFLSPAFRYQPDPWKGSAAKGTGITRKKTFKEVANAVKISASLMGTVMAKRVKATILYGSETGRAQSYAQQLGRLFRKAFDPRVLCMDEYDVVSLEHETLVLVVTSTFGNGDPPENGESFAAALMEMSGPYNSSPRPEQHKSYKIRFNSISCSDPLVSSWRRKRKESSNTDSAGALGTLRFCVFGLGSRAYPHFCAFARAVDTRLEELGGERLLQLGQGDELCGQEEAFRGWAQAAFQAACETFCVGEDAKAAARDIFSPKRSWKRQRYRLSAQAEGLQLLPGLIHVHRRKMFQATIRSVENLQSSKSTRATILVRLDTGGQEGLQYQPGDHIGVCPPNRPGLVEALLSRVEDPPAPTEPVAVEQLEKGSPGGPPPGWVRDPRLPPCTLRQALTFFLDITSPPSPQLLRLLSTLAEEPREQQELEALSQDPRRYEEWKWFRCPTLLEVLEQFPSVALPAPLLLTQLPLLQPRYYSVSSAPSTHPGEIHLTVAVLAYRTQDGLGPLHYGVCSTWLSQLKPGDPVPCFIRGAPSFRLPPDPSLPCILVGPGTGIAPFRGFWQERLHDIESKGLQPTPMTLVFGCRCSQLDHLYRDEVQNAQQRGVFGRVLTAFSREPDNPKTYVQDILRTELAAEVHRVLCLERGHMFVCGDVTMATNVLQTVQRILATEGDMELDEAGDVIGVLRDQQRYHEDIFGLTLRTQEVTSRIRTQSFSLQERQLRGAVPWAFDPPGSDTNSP
Nature of the series: Inhibition of human eNOS expressed in Escherichia coli using human oxyhemoglobin by hemoglobin (Hb) NO capture assay.

The target in series [1] is Nitric oxide synthase 1 (Homo sapiens, UniProt P29475).
Description: Inhibition of human nNOS expressed in Escherichia coli using human oxyhemoglobin by hemoglobin (Hb) NO capture assay
For series [2], the target named is Nitric oxide synthase, inducible (Homo sapiens, UniProt P35228).
Description: Inhibition of human iNOS expressed in Escherichia coli using human oxyhemoglobin by hemoglobin (Hb) NO capture assay
The target in series [3] is Nitric oxide synthase 1 (Rattus norvegicus, UniProt P29476).
Description: Inhibition of rat nNOS expressed in Escherichia coli using human oxyhemoglobin by hemoglobin (Hb) NO capture assay
The conditions of series [4]: mouse, microsomes.
For series [5] the following is noted: human, microsomes.

Chain of Nitric oxide synthase 1 (Homo sapiens, UniProt P29475) (P29475 whole entry): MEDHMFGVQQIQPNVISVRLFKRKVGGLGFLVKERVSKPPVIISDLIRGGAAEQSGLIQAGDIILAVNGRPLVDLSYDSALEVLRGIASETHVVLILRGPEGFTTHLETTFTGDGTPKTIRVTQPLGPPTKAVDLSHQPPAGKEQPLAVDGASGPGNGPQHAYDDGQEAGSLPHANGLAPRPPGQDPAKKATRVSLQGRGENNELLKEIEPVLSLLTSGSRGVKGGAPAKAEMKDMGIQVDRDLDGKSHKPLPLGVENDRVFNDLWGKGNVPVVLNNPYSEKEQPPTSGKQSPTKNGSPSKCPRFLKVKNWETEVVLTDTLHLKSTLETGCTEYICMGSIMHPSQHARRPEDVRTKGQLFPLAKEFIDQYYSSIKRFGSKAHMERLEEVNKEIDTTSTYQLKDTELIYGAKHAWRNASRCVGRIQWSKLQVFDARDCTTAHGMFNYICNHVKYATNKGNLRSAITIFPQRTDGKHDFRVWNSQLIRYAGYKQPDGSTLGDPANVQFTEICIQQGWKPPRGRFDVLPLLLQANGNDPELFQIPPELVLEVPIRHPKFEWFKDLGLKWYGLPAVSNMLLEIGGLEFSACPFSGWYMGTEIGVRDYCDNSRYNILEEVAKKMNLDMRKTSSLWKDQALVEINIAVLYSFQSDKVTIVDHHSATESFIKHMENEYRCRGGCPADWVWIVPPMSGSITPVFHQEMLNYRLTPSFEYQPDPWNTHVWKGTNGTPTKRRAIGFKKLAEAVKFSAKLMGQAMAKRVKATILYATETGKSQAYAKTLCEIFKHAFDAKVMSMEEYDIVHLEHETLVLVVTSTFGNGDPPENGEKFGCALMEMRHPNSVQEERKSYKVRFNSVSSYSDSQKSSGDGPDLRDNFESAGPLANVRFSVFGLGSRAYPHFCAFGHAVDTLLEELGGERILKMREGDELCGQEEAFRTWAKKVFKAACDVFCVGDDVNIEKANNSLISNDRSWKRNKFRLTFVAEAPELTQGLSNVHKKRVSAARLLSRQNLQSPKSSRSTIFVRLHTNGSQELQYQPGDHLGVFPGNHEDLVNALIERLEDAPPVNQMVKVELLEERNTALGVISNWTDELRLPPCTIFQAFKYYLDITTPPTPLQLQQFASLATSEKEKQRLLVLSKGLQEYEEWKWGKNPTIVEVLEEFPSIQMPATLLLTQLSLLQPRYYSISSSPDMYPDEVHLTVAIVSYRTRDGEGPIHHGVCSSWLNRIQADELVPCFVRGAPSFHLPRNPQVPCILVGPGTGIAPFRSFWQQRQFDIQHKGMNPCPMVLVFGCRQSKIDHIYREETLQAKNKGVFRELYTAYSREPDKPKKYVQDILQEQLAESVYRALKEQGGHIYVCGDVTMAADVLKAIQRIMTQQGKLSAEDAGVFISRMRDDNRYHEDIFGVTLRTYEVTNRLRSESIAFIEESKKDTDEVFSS
Chain of Nitric oxide synthase, inducible (P35228 whole entry): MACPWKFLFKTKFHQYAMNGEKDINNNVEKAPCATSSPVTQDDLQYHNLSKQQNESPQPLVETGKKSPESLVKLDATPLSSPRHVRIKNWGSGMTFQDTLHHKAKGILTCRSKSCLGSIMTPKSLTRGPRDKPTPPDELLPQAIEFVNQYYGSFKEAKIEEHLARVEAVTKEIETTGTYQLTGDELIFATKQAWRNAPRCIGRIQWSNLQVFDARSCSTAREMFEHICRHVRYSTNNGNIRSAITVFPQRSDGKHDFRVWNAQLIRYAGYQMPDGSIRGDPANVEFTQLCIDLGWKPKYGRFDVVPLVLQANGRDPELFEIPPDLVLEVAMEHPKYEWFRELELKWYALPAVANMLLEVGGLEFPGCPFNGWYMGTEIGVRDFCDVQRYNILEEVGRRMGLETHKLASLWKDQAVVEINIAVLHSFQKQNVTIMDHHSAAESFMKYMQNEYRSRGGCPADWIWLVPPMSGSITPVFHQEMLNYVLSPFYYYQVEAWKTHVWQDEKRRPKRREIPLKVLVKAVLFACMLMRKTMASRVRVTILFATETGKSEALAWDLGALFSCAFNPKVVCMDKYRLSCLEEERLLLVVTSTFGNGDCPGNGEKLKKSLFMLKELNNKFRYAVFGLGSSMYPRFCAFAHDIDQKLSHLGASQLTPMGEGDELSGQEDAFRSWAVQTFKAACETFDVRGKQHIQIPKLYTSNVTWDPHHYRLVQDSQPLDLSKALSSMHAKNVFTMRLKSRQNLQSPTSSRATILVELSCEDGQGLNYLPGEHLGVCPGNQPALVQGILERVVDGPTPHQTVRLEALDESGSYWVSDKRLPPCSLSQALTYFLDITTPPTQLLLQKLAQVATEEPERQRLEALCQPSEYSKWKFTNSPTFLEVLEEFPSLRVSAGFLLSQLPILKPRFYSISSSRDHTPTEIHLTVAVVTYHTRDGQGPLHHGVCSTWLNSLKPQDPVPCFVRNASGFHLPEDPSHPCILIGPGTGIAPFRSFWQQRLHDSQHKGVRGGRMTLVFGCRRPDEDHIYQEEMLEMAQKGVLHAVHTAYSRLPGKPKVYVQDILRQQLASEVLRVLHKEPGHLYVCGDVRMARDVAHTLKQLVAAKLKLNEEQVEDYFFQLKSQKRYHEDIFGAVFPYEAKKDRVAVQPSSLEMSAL
Chain of Nitric oxide synthase 1 (Rattus norvegicus, UniProt P29476) (P29476 whole entry): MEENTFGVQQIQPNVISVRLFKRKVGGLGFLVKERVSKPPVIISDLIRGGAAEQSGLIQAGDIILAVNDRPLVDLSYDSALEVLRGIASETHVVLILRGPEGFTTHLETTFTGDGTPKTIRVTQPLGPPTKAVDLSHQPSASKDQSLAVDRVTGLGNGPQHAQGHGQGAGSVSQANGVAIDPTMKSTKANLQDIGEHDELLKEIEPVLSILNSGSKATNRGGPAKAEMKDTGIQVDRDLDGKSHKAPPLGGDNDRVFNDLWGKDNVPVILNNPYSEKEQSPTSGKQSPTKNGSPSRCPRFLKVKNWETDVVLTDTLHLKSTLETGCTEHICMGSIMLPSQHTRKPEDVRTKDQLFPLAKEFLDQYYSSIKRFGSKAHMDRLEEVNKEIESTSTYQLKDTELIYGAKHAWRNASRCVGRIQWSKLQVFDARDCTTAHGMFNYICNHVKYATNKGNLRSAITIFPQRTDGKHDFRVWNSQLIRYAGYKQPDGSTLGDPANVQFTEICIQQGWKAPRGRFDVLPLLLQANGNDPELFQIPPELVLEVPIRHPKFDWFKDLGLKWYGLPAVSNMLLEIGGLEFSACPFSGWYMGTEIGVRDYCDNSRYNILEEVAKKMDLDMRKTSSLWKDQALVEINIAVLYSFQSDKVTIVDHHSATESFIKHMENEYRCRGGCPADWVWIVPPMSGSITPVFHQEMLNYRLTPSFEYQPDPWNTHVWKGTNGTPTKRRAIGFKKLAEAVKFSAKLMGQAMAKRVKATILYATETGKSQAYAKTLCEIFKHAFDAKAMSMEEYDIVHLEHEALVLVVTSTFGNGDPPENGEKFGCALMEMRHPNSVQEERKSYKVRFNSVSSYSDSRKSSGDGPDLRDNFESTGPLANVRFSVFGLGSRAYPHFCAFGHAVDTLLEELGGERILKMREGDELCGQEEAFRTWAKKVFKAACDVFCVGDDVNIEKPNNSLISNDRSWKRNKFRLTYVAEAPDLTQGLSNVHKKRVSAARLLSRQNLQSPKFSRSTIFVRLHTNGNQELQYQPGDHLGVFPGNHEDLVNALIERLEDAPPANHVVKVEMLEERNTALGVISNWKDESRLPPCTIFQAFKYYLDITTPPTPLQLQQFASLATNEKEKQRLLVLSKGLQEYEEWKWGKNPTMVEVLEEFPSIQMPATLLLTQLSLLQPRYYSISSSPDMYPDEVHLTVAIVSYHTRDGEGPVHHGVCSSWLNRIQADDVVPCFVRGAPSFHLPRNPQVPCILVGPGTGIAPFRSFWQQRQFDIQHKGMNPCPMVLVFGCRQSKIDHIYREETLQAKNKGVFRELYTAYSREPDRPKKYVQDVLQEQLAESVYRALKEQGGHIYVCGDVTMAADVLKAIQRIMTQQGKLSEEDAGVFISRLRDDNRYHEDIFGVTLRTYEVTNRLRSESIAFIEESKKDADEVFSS

The Ki is the equilibrium dissociation constant of an inhibitor or competing ligand from its target. Higher therefore signals lower affinity. For `Cc1cc(N)nc(/C=C/c2cc(CCN(C)C)cc(F)c2F)c1`, the Ki at Nitric oxide synthase 3 stood at 14.3 µM; on Nitric oxide synthase 1 [1], 0.048 µM; in series [2], 11.9 µM.

On Nitric oxide synthase 3, `CCN(CC)CCc1cc(F)c(F)c(CCc2cc(C)cc(N)n2)c1.Cl.Cl` returned an inhibition constant (Ki) of 46.4 µM. This counts as double-digit micromolar.

As to `CN(C)CCc1cc(F)c(F)c(CCc2cccc(N)n2)c1`, the Ki stood at 61.4 µM at Nitric oxide synthase 3, 1.11 µM on Nitric oxide synthase 1 [3] and 1.64 µM at Nitric oxide synthase 1 [1].

For `Cc1cc(N)nc(CCc2cc(CCN)cc(F)c2F)c1.Cl.Cl`, the inhibition constant Ki on Nitric oxide synthase 3 is 77.2 µM; in series [2], 1.72 µM.

`Cc1cc(N)nc(C#Cc2cc(CN(C)C)cc(F)c2F)c1.Cl.Cl`: the Ki on Nitric oxide synthase 3 is 7.68 µM; on Nitric oxide synthase 1 [1], 0.319 µM; in series [2], 88.7 µM.

For the compound `Cc1cc(N)nc(C#Cc2cc(CCN(C)C)cc(F)c2F)c1`, the Ki at Nitric oxide synthase 3 was found to be 18.7 µM; at Nitric oxide synthase 1 [1], 0.328 µM; in series [2], 48.8 µM.

Turning to `Cc1cc(N)nc(CCc2cc(CCN3CCN(C)CC3)cc(F)c2F)c1`, the affinity on Nitric oxide synthase 3, expressed as Ki, was 12.4 µM.

Regarding `CN(C)CCc1cc(F)c(F)c(CCc2cc(C(F)(F)F)cc(N)n2)c1.Cl.Cl`, the Ki on Nitric oxide synthase 3 turned out to be 68.3 µM.

`Cc1cc(N)nc(CCc2cc(CC[C@H]3CCN3C)cc(F)c2F)c1.Cl.Cl`: the t1/2 in series [4] is 16 min; in series [5], above 60 min.

On to `Cc1cc(N)nc(CCc2cc(CCN(C)C)cc(F)c2F)c1.Cl.Cl`, for which the t1/2 in series [4] was 29 min; in series [5] it was above 60 min.
